Reference: patent publication US20230114728A1 (Venatorx Pharmaceuticals, Inc., priority 2019, published 2023)
Values after ≈ are worked out from the molar mass of the structure shown.

Tests used:
Type in all cases: cell-based
[1] = test system: A. baumannii ATCC 19606; assay: Broth microdilution MIC in CAMHB; settings: Acinetobacter baumannii, ATCC19606; MHB; read-out: Minimum Inhibitory Concentration, A. baumannii ATCC 19606
Method in brief: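 MIC, read by eye, is the lowest compound concentration giving no bacterial growth after 16-20 h at 37° C. Test compounds are serially diluted 2-fold in CAMHB and seeded with 2-8×10^5 CFU/mL of bacteria taken from a 3-5 h shaking culture, following CLSI methods.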

[2] = test system: E. coli 901C; assay: Broth microdilution MIC in CAMHB; settings: Escherichia coli; E. coli 901C (hyper-permeable); MHB; read-out: Minimum Inhibitory Concentration, E. coli 901C
Method in brief: (§1)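 Per CLSI broth microdilution, colonies were grown 3-5 h at 37° C in cation-adjusted Mueller Hinton broth, then diluted to a starting inoculum of 2-8×10^5 CFU/mL against 2-fold serial compound dilutions. Plates were incubated 16-20 h at 37° C, and MIC was read visually as the lowest concentration with no growth.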

[3] = test system: E. coli AG100; assay: Broth microdilution MIC in CAMHB; settings: Escherichia coli; E. coli AG100 (wild-type parent); MHB; read-out: Minimum Inhibitory Concentration, E. coli AG100
Method in brief: as §1

[4] = test system: E. coli D22; assay: Broth microdilution MIC in CAMHB; settings: Escherichia coli; E. coli D22 (hyper-permeable); MHB; read-out: Minimum Inhibitory Concentration, E. coli D22
Method in brief: as §1

[5] = test system: K. pneumoniae SI-117 producing VIM-1; assay: Broth microdilution MIC in CAMHB; settings: Klebsiella pneumoniae, read-out: Minimum Inhibitory Concentration, K. pneumoniae SI-117
Method in brief: as §1

[6] = test system: N. gonorrhoeae ATCC 49226; assay: Liquid broth MIC in Fastidious broth; settings: Neisseria gonorrhoeae, ATCC49226; N. gonorrhoeae strain ATCC 49226; Fastidious broth; read-out: Minimum Inhibitory Concentration, N. gonorrhoeae ATCC 49226
Method in brief: (§2)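 Colonies were swabbed from chocolate agar after 24 h growth and standardised by optical density at 600 nm. Compounds were serially diluted twofold in Fastidious broth, and bacteria added to give 5×10^5 CFU/mL. After about 24 h at 36 °C in 5% CO2, the lowest concentration allowing under 10% growth was taken as MIC.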

[7] = test system: N. gonorrhoeae FA1090; assay: Liquid broth MIC in Fastidious broth; settings: Neisseria gonorrhoeae; N. gonorrhoeae strain FA1090; Fastidious broth; read-out: Minimum Inhibitory Concentration, N. gonorrhoeae FA1090
Method in brief: as §2

[8] = test system: N. gonorrhoeae H041; assay: Liquid broth MIC in Fastidious broth; settings: Neisseria gonorrhoeae, H041, read-out: Minimum Inhibitory Concentration, N. gonorrhoeae H041
Method in brief: (§3)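 Mosaic PBP2 producers; colonies from 24 h chocolate agar, saline suspension, OD600. Fastidious broth, 2-fold dilutions, 5×10^5 CFU/mL. ~24 h, 36 °C, 5% CO2; visual MIC, <10% growth cutoff.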

[9] = test system: N. gonorrhoeae WHO G; assay: Liquid broth MIC in Fastidious broth; settings: Neisseria gonorrhoeae; N. gonorrhoeae strain WHO G; Fastidious broth; read-out: Minimum Inhibitory Concentration, N. gonorrhoeae WHO G
Method in brief: as §2

[10] = test system: N. gonorrhoeae WHO K; assay: Liquid broth MIC in Fastidious broth; settings: Neisseria gonorrhoeae, read-out: Minimum Inhibitory Concentration, N. gonorrhoeae WHO K
Method in brief: as §3

[11] = test system: N. gonorrhoeae WHO L; assay: Liquid broth MIC in Fastidious broth; settings: Neisseria gonorrhoeae; N. gonorrhoeae strain WHO L; Fastidious broth; read-out: Minimum Inhibitory Concentration, N. gonorrhoeae WHO L
Method in brief: as §2

[12] = test system: N. gonorrhoeae WHO Q; assay: Liquid broth MIC in Fastidious broth; settings: Neisseria gonorrhoeae, read-out: Minimum Inhibitory Concentration, N. gonorrhoeae WHO Q
Method in brief: as §3

[13] = test system: N. gonorrhoeae WHO Z; assay: Liquid broth MIC in Fastidious broth; settings: Neisseria gonorrhoeae, read-out: Minimum Inhibitory Concentration, N. gonorrhoeae WHO Z
Method in brief: as §3

Structure (SMILES) | MIC [1] [µg/mL] | MIC [2] [µg/mL] | MIC [3] [µg/mL] | MIC [4] [µg/mL] | MIC [5] [µg/mL] | MIC [6] [µg/mL] | MIC [7] [µg/mL] | MIC [8] [µg/mL] | MIC [9] [µg/mL] | MIC [10] [µg/mL] | MIC [11] [µg/mL] | MIC [12] [µg/mL] | MIC [13] [µg/mL]
CCN1CCN(C(=O)N[C@@H](C(=O)N[C@H]2Cc3cccc(C(=O)O)c3OB2O)c2ccc(C(=O)O)cc2O)C(=O)C1=O (single isomer, unassigned) [Example 144] | 32 to 64 (≈ 56.3 to 113 µM) | < 0.25 | 32 to 64 (≈ 56.3 to 113 µM) | 2 to 4 (≈ 3.52 to 7.04 µM) | > 128 | 1 to 2 (≈ 1.76 to 3.52 µM) | < 0.125 | 16 to 32 (≈ 28.2 to 56.3 µM) | 0.25 to 0.5 (≈ 0.44 to 0.88 µM) | 16 to 32 (≈ 28.2 to 56.3 µM) | 4 to 8 (≈ 7.04 to 14.1 µM) | 4 to 8 (≈ 7.04 to 14.1 µM) | 4 to 8 (≈ 7.04 to 14.1 µM)
CCN1CCN(C(=O)N[C@@H](C(=O)N[C@H]2Cc3cccc(C(=O)O)c3OB2O)c2ccc(C(=O)O)c(F)c2)C(=O)C1=O (single isomer, unassigned) [Example 146] | 32 to 64 (≈ 56.1 to 112 µM) | < 0.25 | 32 to 64 (≈ 56.1 to 112 µM) | 2 to 4 (≈ 3.51 to 7.01 µM) | > 128 | 1 to 2 (≈ 1.75 to 3.51 µM) | < 0.125 | 4 to 8 (≈ 7.01 to 14 µM) | 0.25 to 0.5 (≈ 0.438 to 0.877 µM) | 1 to 2 (≈ 1.75 to 3.51 µM) | 4 to 8 (≈ 7.01 to 14 µM) | 1 to 2 (≈ 1.75 to 3.51 µM) | 1 to 2 (≈ 1.75 to 3.51 µM)
CCN1CCN(C(=O)N[C@H](C(=O)N[C@H]2Cc3cccc(C(=O)O)c3OB2O)c2ccc(C(=O)O)c(F)c2)C(=O)C1=O (single isomer, unassigned) [Example 147] | > 128 | < 0.25 | 32 to 64 (≈ 56.1 to 112 µM) | 2 to 4 (≈ 3.51 to 7.01 µM) | > 128 | 1 to 2 (≈ 1.75 to 3.51 µM) | < 0.125 | 1 to 2 (≈ 1.75 to 3.51 µM) | 0.25 to 0.5 (≈ 0.438 to 0.877 µM) | 0.25 to 0.5 (≈ 0.438 to 0.877 µM) | 4 to 8 (≈ 7.01 to 14 µM) | 0.25 to 0.5 (≈ 0.438 to 0.877 µM) | 0.25 to 0.5 (≈ 0.438 to 0.877 µM)
CCN1CCN(C(=O)N[C@@H](C(=O)N[C@H]2Cc3cccc(C(=O)O)c3OB2O)c2cc(F)c(C(=O)O)cc2Cl)C(=O)C1=O (single isomer, unassigned) [Example 148] | > 128 | < 0.25 | 32 to 64 (≈ 52.9 to 106 µM) | 2 to 4 (≈ 3.31 to 6.61 µM) | > 128 | 4 to 8 (≈ 6.61 to 13.2 µM) | 0.25 to 0.5 (≈ 0.413 to 0.827 µM) | 16 to 32 (≈ 26.5 to 52.9 µM) | 1 to 2 (≈ 1.65 to 3.31 µM) | 4 to 8 (≈ 6.61 to 13.2 µM) | > 64 | 4 to 8 (≈ 6.61 to 13.2 µM) | 4 to 8 (≈ 6.61 to 13.2 µM)
CCN1CCN(C(=O)N[C@H](C(=O)N[C@H]2Cc3cccc(C(=O)O)c3OB2O)c2cc(F)c(C(=O)O)cc2Cl)C(=O)C1=O (single isomer, unassigned) [Example 149] | > 128 | 0.5 to 1 (≈ 0.827 to 1.65 µM) | > 128 | 8 to 16 (≈ 13.2 to 26.5 µM) | > 128 | > 64 | 4 to 8 (≈ 6.61 to 13.2 µM) | > 64 | 16 to 32 (≈ 26.5 to 52.9 µM) | > 64 | > 64 | > 64 | 16 to 32 (≈ 26.5 to 52.9 µM)
CCN1CCN(C(=O)N[C@@H](C(=O)N[C@H]2Cc3cccc(C(=O)O)c3OB2O)c2ccc(C(=O)O)cc2Cl)C(=O)C1=O (single isomer, unassigned) [Example 151] | > 128 | < 0.25 | 32 to 64 (≈ 54.5 to 109 µM) | 2 to 4 (≈ 3.41 to 6.82 µM) | > 128 | 4 to 8 (≈ 6.82 to 13.6 µM) | 0.25 to 0.5 (≈ 0.426 to 0.852 µM) | 4 to 8 (≈ 6.82 to 13.6 µM) | 1 to 2 (≈ 1.7 to 3.41 µM) | 4 to 8 (≈ 6.82 to 13.6 µM) | 16 to 32 (≈ 27.3 to 54.5 µM) | 4 to 8 (≈ 6.82 to 13.6 µM) | 1 to 2 (≈ 1.7 to 3.41 µM)
CCN1CCN(C(=O)N[C@H](C(=O)N[C@H]2Cc3cccc(C(=O)O)c3OB2O)c2ccc(C(=O)O)cc2Cl)C(=O)C1=O (single isomer, unassigned) [Example 152] | > 128 | 0.5 to 1 (≈ 0.852 to 1.7 µM) | > 128 | 8 to 16 (≈ 13.6 to 27.3 µM) | > 128 | 16 to 32 (≈ 27.3 to 54.5 µM) | 1 to 2 (≈ 1.7 to 3.41 µM) | 16 to 32 (≈ 27.3 to 54.5 µM) | 4 to 8 (≈ 6.82 to 13.6 µM) | 16 to 32 (≈ 27.3 to 54.5 µM) | > 64 | 16 to 32 (≈ 27.3 to 54.5 µM) | 4 to 8 (≈ 6.82 to 13.6 µM)
